From patent US8273754B2, “Substituted 1H-pyrazolo[3,4-D]pyrimidine-6-amine compounds” (ArQule, Inc., priority 2008, dated 2012)
Like-named read-outs stand apart in the source and are kept apart here.

System: cancer cells
Assay: MTS cell growth inhibition assay (72 hours)
Assay type: cell-based
Method in brief: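 Cells in DMEM with 1% FBS, seeded 18 h, then compound-treated 72 h at 37 °C. Viability by MTS/PMS for 4 h, formazan absorbance at 492 nm; IC50 taken as concentration giving 50% absorbance drop, activity banded by percent inhibition.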

[1] = Homo sapiens, DLD-1, 72 h, DLD-1 cells, read-out: DLD-1 MTS 72 hr at 10 μM
[2] = Homo sapiens, KATO III, 72 h, KATO III cells, read-out: KATO III MTS 72 hr at 10 μM
[3] = Homo sapiens, MDA-MB-231, 72 h, MDA-MB-231 cells, read-out: MDA-MB-231 MTS 72 hr at 10 μM
[4] = Homo sapiens, NCI-H1299, 72 h, NCI-H1299 cells, read-out: NCI-H1299 MTS 72 hr at 10 μM
[5] = PaCa-2, 72 h, PACA-2 cells, read-out: PACA-2 MTS 72 hr at 10 μM

Row | SMILES | inhibition at 10 µM [1] [%] | inhibition at 10 µM [2] [%] | inhibition at 10 µM [3] [%] | inhibition at 10 µM [4] [%] | inhibition at 10 µM [5] [%]
1 | Cc1ccc(CN2CC(Nc3nc(N)nc4[nH]ncc34)Cc3ccccc32)c(C)c1 (stereo not drawn) [Compound 134, N4-[1-(2,4-dimethylbenzyl)-1,2,3,4-tetrahydroquinolin-3-yl]-1H-pyrazolo[3,4-d]pyrimidine-4,6-diamine] | > 79 | > 79 | < 50 | < 50 | 50 to 79
2 | Nc1nc(NC2Cc3ccccc3N(S(=O)(=O)c3cccc(NC(=O)Nc4c(F)cc(Br)cc4F)c3)C2)c2cn[nH]c2n1 (stereo not drawn) [Compound 206, 1-[3-({3-[(6-amino-1H-pyrazolo[3,4-d]pyrimidin-4-yl)amino]-3,4-dihydroquinolin-1(2H)-yl}sulfonyl)phenyl]-3-(4-bromo-2,6-difluorophenyl)urea] | < 50 | 50 to 79 | < 50 | < 50 | 50 to 79
3 | Nc1nc(NC2Cc3ccccc3N(S(=O)(=O)c3ccc(NC(=O)Nc4ccc(F)c(F)c4)cc3)C2)c2cn[nH]c2n1 (stereo not drawn) [Compound 194, 1-[4-({3-[(6-amino-1H-pyrazolo[3,4-d]pyrimidin-4-yl)amino]-3,4-dihydroquinolin-1(2H)-yl}sulfonyl)phenyl]-3-(3,4-difluorophenyl)urea] | > 79 | > 79 | > 79 | > 79 | > 79
4 | Nc1nc(NC2Cc3ccccc3N(S(=O)(=O)c3ccc(NC(=O)Nc4cc(F)cc(C(F)(F)F)c4)cc3)C2)c2cn[nH]c2n1 (stereo not drawn) [Compound 197, 1-[4-({3-[(6-amino-1H-pyrazolo[3,4-d]pyrimidin-4-yl)amino]-3,4-dihydroquinolin-1(2H)-yl}sulfonyl)phenyl]-3-[3-fluoro-5-(trifluoromethyl)phenyl]urea] | > 79 | > 79 | > 79 | > 79 | > 79
5 | Nc1nc(NC2Cc3ccccc3N(Cc3ccccc3OCc3c(Cl)cccc3Cl)C2)c2cn[nH]c2n1 (stereo not drawn) [Compound 152, N4-(1-{2-[(2,6-dichlorobenzyl)oxy]benzyl}-1,2,3,4-tetrahydroquinolin-3-yl)-1H-pyrazolo[3,4-d]pyrimidine-4,6-diamine] | > 79 | 50 to 79 | 50 to 79 | < 50 | < 50
6 | Cc1ccc(Oc2ccc(S(=O)(=O)N3CC(Nc4nc(N)nc5[nH]ncc45)Cc4ccccc43)cc2)cc1 (stereo not drawn) [Compound 69, N4-(1-(4-(p-tolyloxy)phenylsulfonyl)-1,2,3,4-tetrahydroquinolin-3-yl)-1H-pyrazolo[3,4-d]pyrimidine-4,6-diamine] | > 79 | > 79 | > 79 | > 79 | > 79
7 | Nc1nc(NC2Cc3ccccc3N(S(=O)(=O)c3cccc(Br)c3)C2)c2cn[nH]c2n1 (stereo not drawn) [Compound 41, N4-(1-(3-bromophenylsulfonyl)-1,2,3,4-tetrahydroquinolin-3-yl)-1H-pyrazolo[3,4-d]pyrimidine-4,6-diamine] | < 50 | > 79 | < 50 | < 50 | < 50
8 | Nc1nc(NC2Cc3ccccc3N(S(=O)(=O)c3ccc4c(c3)OCCO4)C2)c2cn[nH]c2n1 (stereo not drawn) [Compound 76, N4-(1-(2,3-dihydrobenzo[b][1,4]dioxin-6-ylsulfonyl)-1,2,3,4-tetrahydroquinolin-3-yl)-1H-pyrazolo[3,4-d]pyrimidine-4,6-diamine] | < 50 | < 50 | < 50 | < 50 | 50 to 79
9 | CC(C)c1cccc(C(C)C)c1NC(=O)N1CC(Nc2nc(N)nc3[nH]ncc23)Cc2ccccc21 (stereo not drawn) [Compound 112, 3-(6-amino-1H-pyrazolo[3,4-d]pyrimidin-4-ylamino)-N-(2,6-diisopropylphenyl)-3,4-dihydroquinoline-1(2H)-carboxamide] | < 50 | < 50 | < 50 | < 50 | < 50
10 | COc1cc(C)c(S(=O)(=O)N2CC(Nc3nc(N)nc4[nH]ncc34)Cc3ccccc32)c(C)c1C (stereo not drawn) [Compound 72, N4-(1-(4-methoxy-2,3,6-trimethylphenylsulfonyl)-1,2,3,4-tetrahydroquinolin-3-yl)-1H-pyrazolo[3,4-d]pyrimidine-4,6-diamine] | > 79 | > 79 | 50 to 79 | < 50 | > 79
11 | Nc1nc(NC2Cc3ccccc3N(Cc3c(F)cccc3Cl)C2)c2cn[nH]c2n1 (stereo not drawn) [Compound 140, N4-[1-(2-chloro-6-fluorobenzyl)-1,2,3,4-tetrahydroquinolin-3-yl]-1H-pyrazolo[3,4-d]pyrimidine-4,6-diamine] | > 79 | > 79 | > 79 | 50 to 79 | > 79
12 | Nc1nc(NC2Cc3ccccc3N(S(=O)(=O)c3cccc(NC(=O)Nc4cccc(C(F)(F)F)c4)c3)C2)c2cn[nH]c2n1 (stereo not drawn) [Compound 199, 1-[3-({3-[(6-amino-1H-pyrazolo[3,4-d]pyrimidin-4-yl)amino]-3,4-dihydroquinolin-1(2H)-yl}sulfonyl)phenyl]-3-[3-(trifluoromethyl)phenyl]urea] | > 79 | > 79 | > 79 | > 79 | > 79
13 | Nc1nc(NC2Cc3ccccc3N(C(=O)c3cc(F)cc(F)c3F)C2)c2cn[nH]c2n1 (stereo not drawn) [Compound 92, (3-(6-amino-1H-pyrazolo[3,4-d]pyrimidin-4-ylamino)-3,4-dihydroquinolin-1(2H)-yl)(2,3,5-trifluorophenyl)methanone] | > 79 | > 79 | > 79 | 50 to 79 | > 79
14 | COc1ccc(CCNC(=O)N2CC(Nc3nc(N)nc4[nH]ncc34)Cc3ccccc32)cc1OC (stereo not drawn) [Compound 109, 3-(6-amino-1H-pyrazolo[3,4-d]pyrimidin-4-ylamino)-N-(3,4-dimethoxyphenethyl)-3,4-dihydroquinoline-1(2H)-carboxamide] | < 50 | < 50 | < 50 | < 50 | < 50
15 | COc1ccc(OC)c(CC(=O)N2CC(Nc3nc(N)nc4[nH]ncc34)Cc3ccccc32)c1 (stereo not drawn) [Compound 105, 1-(3-(6-amino-1H-pyrazolo[3,4-d]pyrimidin-4-ylamino)-3,4-dihydroquinolin-1(2H)-yl)-2-(2,5-dimethoxyphenyl)ethanone] | < 50 | < 50 | < 50 | < 50 | < 50
16 | Nc1nc(NC2Cc3ccccc3N(S(=O)(=O)c3ccc(NC(=O)Nc4ccccc4Cl)cc3)C2)c2cn[nH]c2n1 (stereo not drawn) [Compound 190, 1-[4-({3-[(6-amino-1H-pyrazolo[3,4-d]pyrimidin-4-yl)amino]-3,4-dihydroquinolin-1(2H)-yl}sulfonyl)phenyl]-3-(2-chlorophenyl)urea] | < 50 | < 50 | < 50 | < 50 | < 50
17 | Nc1nc(NC2CCN(S(=O)(=O)c3ccc(F)c(F)c3)c3ccccc3C2)c2cn[nH]c2n1 (stereo not drawn) [Compound 182, N4-{1-[(3,4-difluorophenyl)sulfonyl]-2,3,4,5-tetrahydro-1H-1-benzazepin-4-yl}-1H-pyrazolo[3,4-d]pyrimidine-4,6-diamine] | < 50 | < 50 | < 50 | < 50 | < 50
18 | Nc1nc(NC2Cc3ccccc3N(C(=O)NCCc3cccc(Cl)c3)C2)c2cn[nH]c2n1 (stereo not drawn) [Compound 106, 3-(6-amino-1H-pyrazolo[3,4-d]pyrimidin-4-ylamino)-N-(3-chlorophenethyl)-3,4-dihydroquinoline-1(2H)-carboxamide] | < 50 | < 50 | < 50 | < 50 | < 50
19 | Nc1nc(NC2CCN(S(=O)(=O)c3ccccc3)c3ccccc3C2)c2cn[nH]c2n1 (stereo not drawn) [Compound 166, N^4-(1-(phenylsulfonyl)-2,3,4,5-tetrahydro-1H-benzo[b]azepin-4-yl)-1H-pyrazolo[3,4-d]pyrimidine-4,6-diamine] | < 50 | < 50 | < 50 | < 50 | < 50
20 | Cc1cc([N+](=O)[O-])ccc1NC(=O)N1CC(Nc2nc(N)nc3[nH]ncc23)Cc2ccccc21 (stereo not drawn) [Compound 113, 3-(6-amino-1H-pyrazolo[3,4-d]pyrimidin-4-ylamino)-N-(2-methyl-4-nitrophenyl)-3,4-dihydroquinoline-1(2H)-carboxamide] | > 79 | > 79 | > 79 | > 79 | > 79
21 | Nc1nc(NC2CCN(S(=O)(=O)c3ccc(Cl)c(Cl)c3)c3ccccc3C2)c2cn[nH]c2n1 (stereo not drawn) [Compound 179, N4-{1-[(3,4-dichlorophenyl)sulfonyl]-2,3,4,5-tetrahydro-1H-1-benzazepin-4-yl}-1H-pyrazolo[3,4-d]pyrimidine-4,6-diamine] | 50 to 79 | 50 to 79 | < 50 | < 50 | < 50
